These results are taken from patent US20250051363A1, “Substituted Pyrazolopyridines” (Neuro3 Therapeutics, Inc., priority 2023, published 2025).

This assay concerns the target LRRK2 wild-type (Homo sapiens (Human), UniProt Q5S007). The experiment in a line: LanthaScreen LRRK2 Biochemical Activity Assay. The following applies: human recombinant LRRK2 (amino acids 970-2527) wild-type, ATP 57 μM, TR-FRET; read-out: IC50 (nM), inhibition of LRRK2 wild-type kinase activity. The protocol: The ability of a compound of Formula (I) to inhibit LRRK2 kinase activity is measured using a LanthaScreen™ kinase activity assay. In general, in a LanthaScreen™ kinase activity assay, kinase, fluorescein-labeled substrate, and ATP are allowed to react. Then EDTA (to stop the reaction) and terbium-labeled antibody (to detect phosphorylated product) are added. In a LanthaScreen™ kinase reaction, the antibody associates with the phosphorylated fluorescein labeled substrate resulting in an increased TR-FRET value. The TR-FRET value is a dimensionless number that is calculated as the ratio of the acceptor (fluorescein) signal to the donor (terbium) signal. The amount of antibody that is bound to the tracer is directly proportional to the amount of phosphorylated substrate present, and in this manner, kinase activity can be detected and measured by an increase in the TR-FRET value. Accordingly, in this Example, enzyme reactions are carried out in a kinase reaction buffer in the presence or absence of representative compounds of Formula (I) at various concentrations in 384-well plate at room temperature for 60 minutes. The kinase reaction buffer contains human recombinant LRRK2 protein (amino acids 970-2527, 5 nM), ATP (57 μM for LRRK2 wild-type, 134 μM for G2019S mutant protein), Fluorescein-LRRKtide substrate (0.4 mM), 50 mM Tris pH 7.5, 10 mM MgCl2, 1 mM EGTA, 0.01% Brij™-35, and 2 mM DTT. The final reaction volume for each reaction is 10 μL. The reactions are initated by adding the substrate and stopped by the addition of 10 μL of a TR-FRET dilution buffer supplemented with a kinase quench buffer (10 mM EDTA final) and Tb-anti-pLRRKtide (2 nM final). The plate is further incubated at room temperature for another 60 minutes, and the fluorescent signals are read on an EnVision® multilabel plate reader (PerkinElmer, Waltham, MA) with excitation at 340 nm and emission at 495 and 520 nm. The assay signal is determined as a ratio of FRET-specific signal measured with emission filter at 520 nm to that of the signal measured with Tb-specific emission filter at 495 nm. IC50 values for compound-mediated enzyme inhibition are calculated using appropriate programs in GraphPad Prism software by plotting the logarithm of the compound concentrations versus percent inhibition. All reagents are purchased from Thermo Fisher Scientific.

Chain of LRRK2 wild-type (Q5S007 970-2527): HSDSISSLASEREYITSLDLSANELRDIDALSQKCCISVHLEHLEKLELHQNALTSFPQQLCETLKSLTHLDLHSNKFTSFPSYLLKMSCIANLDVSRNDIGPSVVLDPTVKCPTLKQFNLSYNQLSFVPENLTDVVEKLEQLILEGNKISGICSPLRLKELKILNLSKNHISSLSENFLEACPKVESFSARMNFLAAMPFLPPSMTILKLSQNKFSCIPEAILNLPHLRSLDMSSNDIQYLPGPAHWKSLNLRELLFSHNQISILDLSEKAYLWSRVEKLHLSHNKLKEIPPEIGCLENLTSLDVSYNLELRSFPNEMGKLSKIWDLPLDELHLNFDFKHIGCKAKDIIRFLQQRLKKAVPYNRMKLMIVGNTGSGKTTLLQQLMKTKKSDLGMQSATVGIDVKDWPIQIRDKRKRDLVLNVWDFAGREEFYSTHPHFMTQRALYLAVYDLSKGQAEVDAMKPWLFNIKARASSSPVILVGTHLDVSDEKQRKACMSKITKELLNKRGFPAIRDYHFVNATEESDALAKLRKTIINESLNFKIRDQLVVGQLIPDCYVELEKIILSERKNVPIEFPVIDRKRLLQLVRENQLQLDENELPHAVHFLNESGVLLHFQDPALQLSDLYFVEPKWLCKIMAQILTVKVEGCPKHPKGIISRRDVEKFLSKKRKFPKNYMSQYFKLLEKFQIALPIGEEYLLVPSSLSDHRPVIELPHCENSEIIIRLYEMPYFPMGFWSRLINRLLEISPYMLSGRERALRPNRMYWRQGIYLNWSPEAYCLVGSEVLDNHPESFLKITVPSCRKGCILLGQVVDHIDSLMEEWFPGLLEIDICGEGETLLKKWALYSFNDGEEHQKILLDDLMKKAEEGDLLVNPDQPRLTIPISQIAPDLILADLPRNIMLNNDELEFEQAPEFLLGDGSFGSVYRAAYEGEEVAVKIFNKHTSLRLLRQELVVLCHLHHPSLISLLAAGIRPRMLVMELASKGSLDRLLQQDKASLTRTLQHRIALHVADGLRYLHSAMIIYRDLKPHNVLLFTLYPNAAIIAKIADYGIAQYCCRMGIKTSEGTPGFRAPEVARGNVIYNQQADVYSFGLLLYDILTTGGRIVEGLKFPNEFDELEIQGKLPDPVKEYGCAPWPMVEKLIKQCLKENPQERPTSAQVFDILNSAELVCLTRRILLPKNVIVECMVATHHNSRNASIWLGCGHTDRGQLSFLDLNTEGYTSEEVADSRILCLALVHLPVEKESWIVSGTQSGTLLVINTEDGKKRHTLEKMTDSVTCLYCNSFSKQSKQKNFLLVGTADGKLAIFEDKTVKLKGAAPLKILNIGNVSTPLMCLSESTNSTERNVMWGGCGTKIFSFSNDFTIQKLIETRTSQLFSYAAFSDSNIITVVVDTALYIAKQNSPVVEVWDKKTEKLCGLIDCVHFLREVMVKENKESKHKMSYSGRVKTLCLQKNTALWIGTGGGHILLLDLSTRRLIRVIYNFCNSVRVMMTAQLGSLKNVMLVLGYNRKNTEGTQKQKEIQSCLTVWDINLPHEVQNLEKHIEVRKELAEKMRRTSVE

`CS(=O)(=O)CC(=O)Nc1ccn2ncc(-c3cccc(C4CCCNC4)n3)c2c1` (centres unmarked) [Example 67, 2-(methylsulfonyl)-N-(3-(6-(piperidin-3-yl)pyridin-2-yl)pyrazolo[1,5-a]pyridin-5-yl)acetamide]: the IC50 was in the range of 11 to 100 nM.
As to `Nc1ccn2ncc(-c3cccc(C4CCCNC4)n3)c2c1` (centres unmarked) [Example 19, 3-[6-(3-piperidyl)-2-pyridyl]pyrazolo[1,5-a]pyridin-5-amine], the IC50 lay in the range of 101 to 400 nM.
For the compound `C[C@@H]1CN(c2cc(Cl)cc(-c3cnn4ccc(Cl)cc34)n2)C[C@H](C)N1` [Example 59, 5-chloro-3-[4-chloro-6-[(3S,5R)-3,5-dimethylpiperazin-1-yl]-2-pyridyl]pyrazolo[1,5-a]pyridine], the IC50 was at most 10 nM.
As to `Fc1ccc(-c2cnn3ccccc23)nc1C1CCCNC1` (centres unmarked) [Example 33, 3-[5-fluoro-6-(3-piperidyl)-2-pyridyl]pyrazolo[1,5-a]pyridine], the IC50 lay within 101 to 400 nM.
Take `Clc1ccc(-c2cnn3ccccc23)nc1C1CCCNC1` (centres unmarked) [Example 29, 3-[5-chloro-6-(3-piperidyl)-2-pyridyl]pyrazolo[1,5-a]pyridine]: the IC50 was 11 to 100 nM.
With `FC(F)(F)c1ccn2ncc(-c3cccc(N4CCNCC4)n3)c2c1` [Example 40, 3-(6-piperazin-1-yl-2-pyridyl)-5-(trifluoromethyl)pyrazolo[1,5-a]pyridine], the IC50 fell in the range of 11 to 100 nM.
In the case of `CS(=O)(=O)NCCNC(=O)c1ccc2c(-c3cccc(C4CCCNC4)n3)cnn2c1` (centres unmarked) [Example 24, N-[2-(methanesulfonamido)ethyl]-3-[6-(3-piperidyl)-2-pyridyl]pyrazolo[1,5-a]pyridine-6-carboxamide], the IC50 fell in the range of 101 to 400 nM.
Regarding `COc1ccn2ncc(-c3cccc(C4CCCNC4)n3)c2c1` (centres unmarked) [Example 11, 5-methoxy-3-[6-(3-piperidyl)-2-pyridyl]pyrazolo[1,5-a]pyridine], the half-maximal inhibitory concentration (IC50) lay in the range of 11 to 100 nM.
For the compound `N#CCCC(=O)Nc1ccn2ncc(-c3cccc(C4CCCNC4)n3)c2c1` (centres unmarked) [Example 74, 3-cyano-N-(3-(6-(piperidin-3-yl)pyridin-2-yl)pyrazolo[1,5-a]pyridin-5-yl)propanamide], the IC50 lay within 11 to 100 nM.
Take `Fc1cc(-c2cnn3ccc(Cl)cc23)nc(N2CCNCC2)c1` [Example 44, 5-chloro-3-(4-fluoro-6-piperazin-1-yl-2-pyridyl)pyrazolo[1,5-a]pyridine]: the IC50 is 11 to 100 nM.
Next, `C[C@@H]1CN(c2cc(F)cc(-c3cnn4ccc(Cl)cc34)n2)C[C@H](C)N1` [Example 58, 5-chloro-3-[6-[(3R,5S)-3,5-dimethylpiperazin-1-yl]-4-fluoro-2-pyridyl]pyrazolo[1,5-a]pyridine]: at most 10 nM.
